“And” between values parts separate entries of the source, which are not always exact repeats. Identical values can stand only once.
Species on record: Rattus norvegicus
Assay: Open TG-GATES - Regimen: Single
Type: toxicity, organism-based, Sprague-Dawley
Parameters: regimen Single, gender Male, age 6 weeks
Details: in vivo, po, route gavage; for APTT / Bas / Eos / Fbg / Hb / Ht / Lym / MCH / MCHC / MCV / Mono / Neu / PT / Plat / RBC / Ret / WBC: tissue Blood; for KIDNEY_L / KIDNEY_R / KIDNEY_TOTAL: tissue Kidney; for LIVER: tissue Liver; for ALP / ALT / AST / BUN / CRE / Ca / Cl / GLC / IP / K / LDH / Na / PL / RALB / TBIL / TC / TP / gamma-GTP / DBIL: tissue Plasma
[1] = 0 mg/kg, 3 h, dose level Control
[2] = 0 mg/kg, 6 h, dose level Control
[3] = 0 mg/kg, 9 h, dose level Control
[4] = 0 mg/kg, 24 h, dose level Control

## O=P1(N(CCCl)CCCl)NCCCO1 (stereo unspecified) [CYCLOPHOSPHAMIDE ANHYDROUS]
[1]
  TERMINAL_BW: 187.8 g and 193 g
  APTT: 22.9 s and 16.1 s
  Bas: 0% and 0.2%
  Eos: 1% and 0.6%
  Fbg: 287.4 mg/dL and 271.4 mg/dL
  Hb: 13.1 g/dL and 13.4 g/dL
  Ht: 39.1% and 39.6%
  Lym: 84% and 75.6%
  MCH: 21.3 pg and 21 pg
  MCHC: 33.5% and 33.7%
  MCV: 63.6 fL and 62.4 fL
  Mono: 1.6% and 3.2%
  Neu: 12.8% and 20.2%
  PT: 15.9 s and 13.8 s
  Plat: 124.4 x10_4/uL and 125.2 x10_4/uL
  RBC: 614.8 x10_4/ul and 636 x10_4/ul
  Ret: 8.6% and 9.1%
  WBC: 75.9 x10_2/uL and 115.3 x10_2/uL
  KIDNEY_L: 0.9 g
  KIDNEY_R: 0.8 g
  KIDNEY_TOTAL: 1.7 g
  LIVER: 8.5 g and 8.2 g
  ALP: 1691.4 IU/L and 1383.8 IU/L
  ALT: 46.4 IU/L and 37.2 IU/L
  AST: 77.8 IU/L and 73.8 IU/L
  BUN: 13.4 mg/dL and 10 mg/dL
  CRE: 0.2 mg/dL
  Ca: 10.6 mg/dL and 11 mg/dL
  Cl: 106.8 meq/L and 105.2 meq/L
  GLC: 188.8 mg/dL and 175.4 mg/dL
  IP: 8.2 mg/dL and 8.4 mg/dL
  K: 3.8 meq/L and 4.6 meq/L
  LDH: 185 IU/L and 66 IU/L
  Na: 144.2 meq/L and 140.4 meq/L
  PL: 135.6 mg/dL and 140.8 mg/dL
  RALB: 2.9 g/dL and 2.4 g/dL
  TBIL: 0.026 mg/dL and 0.066 mg/dL
  TC: 78.4 mg/dL and 78 mg/dL
  TP: 5.4 g/dL and 5.2 g/dL
  gamma-GTP: 1 IU/L and 1.2 IU/L
[2]
  TERMINAL_BW: 190.8 g and 192 g
  APTT: 21.9 s and 18.3 s
  Bas: 0%
  Eos: 0.6% and 1%
  Fbg: 286 mg/dL and 280.6 mg/dL
  Hb: 13.3 g/dL and 12.8 g/dL
  Ht: 39.8% and 38.3%
  Lym: 78.6% and 76.6%
  MCH: 21.1 pg and 20.7 pg
  MCHC: 33.5%
  MCV: 63.1 fL and 61.8 fL
  Mono: 2%
  Neu: 17.8% and 20.2%
  PT: 16.4 s and 14 s
  Plat: 122.5 x10_4/uL and 115 x10_4/uL
  RBC: 630.6 x10_4/ul and 620.2 x10_4/ul
  Ret: 8.1% and 8.5%
  WBC: 102.3 x10_2/uL and 90.1 x10_2/uL
  KIDNEY_L: 0.9 g and 0.8 g
  KIDNEY_R: 0.9 g and 0.8 g
  KIDNEY_TOTAL: 1.7 g
  LIVER: 8.1 g
  ALP: 1329.6 IU/L and 1641.8 IU/L
  ALT: 38.8 IU/L and 34.4 IU/L
  AST: 66.8 IU/L and 71.4 IU/L
  BUN: 10.8 mg/dL and 10 mg/dL
  CRE: 0.1 mg/dL and 0.2 mg/dL
  Ca: 10.6 mg/dL and 11 mg/dL
  Cl: 106 meq/L and 106.2 meq/L
  GLC: 185.2 mg/dL and 174.8 mg/dL
  IP: 8.9 mg/dL and 9 mg/dL
  K: 4.2 meq/L and 4.3 meq/L
  LDH: 166.8 IU/L and 60.6 IU/L
  Na: 143.4 meq/L and 142.4 meq/L
  PL: 134.2 mg/dL and 136.8 mg/dL
  RALB: 2.8 g/dL and 2.5 g/dL
  TBIL: 0.032 mg/dL and 0.068 mg/dL
  TC: 75.8 mg/dL and 74.2 mg/dL
  TP: 5.4 g/dL and 5.3 g/dL
  gamma-GTP: 1 IU/L
[3]
  TERMINAL_BW: 186.5 g and 187.9 g
  APTT: 20.3 s and 17.4 s
  Bas: 0%
  Eos: 0.6% and 1%
  Fbg: 300.4 mg/dL and 291.4 mg/dL
  Hb: 13 g/dL and 12.7 g/dL
  Ht: 38.9% and 38.1%
  Lym: 80.8% and 75.6%
  MCH: 21.1 pg and 20.6 pg
  MCHC: 33.5% and 33.3%
  MCV: 62.9 fL and 61.8 fL
  Mono: 1.8%
  Neu: 16.4% and 20.8%
  PT: 16.6 s and 13.9 s
  Plat: 120.1 x10_4/uL and 120.7 x10_4/uL
  RBC: 619.4 x10_4/ul and 616.6 x10_4/ul
  Ret: 7.8% and 8.3%
  WBC: 78.2 x10_2/uL and 80.1 x10_2/uL
  KIDNEY_L: 0.9 g and 0.8 g
  KIDNEY_R: 0.9 g and 0.8 g
  KIDNEY_TOTAL: 1.8 g and 1.6 g
  LIVER: 7.7 g and 7.1 g
  ALP: 1482.2 IU/L and 1393 IU/L
  ALT: 37.6 IU/L and 35 IU/L
  AST: 69 IU/L and 73.8 IU/L
  BUN: 10.4 mg/dL and 7.4 mg/dL
  CRE: 0.1 mg/dL and 0.2 mg/dL
  Ca: 10.4 mg/dL and 10.7 mg/dL
  Cl: 106 meq/L and 106.4 meq/L
  GLC: 178.6 mg/dL and 161 mg/dL
  IP: 9.7 mg/dL and 9.3 mg/dL
  K: 3.8 meq/L and 4.2 meq/L
  Na: 143 meq/L and 141.8 meq/L
  PL: 126.6 mg/dL and 131.6 mg/dL
  RALB: 3 g/dL and 2.5 g/dL
  TBIL: 0.034 mg/dL and 0.072 mg/dL
  TC: 72.6 mg/dL and 78 mg/dL
  TP: 5.4 g/dL and 5.3 g/dL
  gamma-GTP: 1 IU/L and 1.6 IU/L
[4]
  TERMINAL_BW: 205 g and 201 g
  APTT: 21 s and 17.8 s
  Bas: 0%
  Eos: 0.6% and 1.2%
  Fbg: 300.2 mg/dL and 289 mg/dL
  Hb: 13.1 g/dL and 13.5 g/dL
  Ht: 39.3% and 40.6%
  Lym: 81.8% and 74.6%
  MCH: 21.4 pg and 20.6 pg
  MCHC: 33.3% and 33.4%
  MCV: 64.2 fL and 61.7 fL
  Mono: 2.2% and 3%
  Neu: 15.2% and 21%
  PT: 16.5 s and 14 s
  Plat: 120.5 x10_4/uL and 107.8 x10_4/uL
  RBC: 612.4 x10_4/ul and 658.4 x10_4/ul
  Ret: 7.8% and 7.5%
  WBC: 90.3 x10_2/uL and 86.9 x10_2/uL
  KIDNEY_L: 0.9 g
  KIDNEY_R: 0.9 g and 0.8 g
  KIDNEY_TOTAL: 1.9 g and 1.7 g
  LIVER: 9.8 g and 8.7 g
  ALP: 1816 IU/L and 1543.8 IU/L
  ALT: 45.6 IU/L and 38 IU/L
  AST: 71.2 IU/L and 71.6 IU/L
  BUN: 16.4 mg/dL and 13.6 mg/dL
  CRE: 0.2 mg/dL
  Ca: 10.7 mg/dL and 11.1 mg/dL
  Cl: 104.8 meq/L and 105.8 meq/L
  GLC: 189.6 mg/dL and 178.8 mg/dL
  IP: 7.3 mg/dL and 7.8 mg/dL
  K: 4.4 meq/L
  LDH: 192.2 IU/L and 79 IU/L
  Na: 142.6 meq/L and 141 meq/L
  PL: 161.6 mg/dL and 160.8 mg/dL
  RALB: 2.9 g/dL and 2.6 g/dL
  TC: 82 mg/dL and 82.6 mg/dL
  TP: 5.4 g/dL and 5.6 g/dL
  gamma-GTP: 1.2 IU/L
2 mg/kg, 3 h, dose level Low
  TERMINAL_BW: 191.9 g
  APTT: 22.6 s
  Bas: 0%
  Eos: 0.4%
  Fbg: 284.6 mg/dL
  Hb: 13.1 g/dL
  Ht: 39.2%
  Lym: 85.4%
  MCH: 21.8 pg
  MCHC: 33.3%
  MCV: 65.4 fL
  Mono: 1.4%
  Neu: 12.4%
  PT: 15.9 s
  Plat: 119.4 x10_4/uL
  RBC: 600.4 x10_4/ul
  Ret: 8.8%
  WBC: 81 x10_2/uL
  KIDNEY_L: 0.9 g
  KIDNEY_R: 0.9 g
  KIDNEY_TOTAL: 1.8 g
  LIVER: 9 g
  ALP: 1623.4 IU/L
  ALT: 42.2 IU/L
  AST: 73.4 IU/L
  BUN: 12.4 mg/dL
  CRE: 0.1 mg/dL
  Ca: 10.8 mg/dL
  Cl: 107.2 meq/L
  DBIL: 0 mg/dL
  GLC: 190 mg/dL
  IP: 7.9 mg/dL
  K: 4.1 meq/L
  LDH: 181.4 IU/L
  Na: 144 meq/L
  PL: 119.2 mg/dL
  RALB: 2.9 g/dL
  TBIL: 0.022 mg/dL
  TC: 64.4 mg/dL
  TP: 5.2 g/dL
  gamma-GTP: 1 IU/L
2 mg/kg, 6 h, dose level Low
  TERMINAL_BW: 187.4 g
  APTT: 21.7 s
  Bas: 0%
  Eos: 0.8%
  Fbg: 301.4 mg/dL
  Hb: 13.1 g/dL
  Ht: 39.4%
  Lym: 76.2%
  MCH: 21.4 pg
  MCHC: 33.4%
  MCV: 64.2 fL
  Mono: 2.2%
  Neu: 20.2%
  PT: 16 s
  Plat: 121.6 x10_4/uL
  RBC: 613.6 x10_4/ul
  Ret: 8.5%
  WBC: 94.5 x10_2/uL
  KIDNEY_L: 0.9 g
  KIDNEY_R: 0.9 g
  KIDNEY_TOTAL: 1.7 g
  LIVER: 8 g
  ALP: 1350.2 IU/L
  ALT: 39.2 IU/L
  AST: 69.2 IU/L
  BUN: 10.2 mg/dL
  CRE: 0.1 mg/dL
  Ca: 10.6 mg/dL
  Cl: 106.8 meq/L
  DBIL: 0 mg/dL
  GLC: 184.8 mg/dL
  IP: 9.4 mg/dL
  K: 4.4 meq/L
  LDH: 195.2 IU/L
  Na: 142.8 meq/L
  PL: 136.8 mg/dL
  RALB: 2.9 g/dL
  TBIL: 0.032 mg/dL
  TC: 78.2 mg/dL
  TP: 5.3 g/dL
  gamma-GTP: 1.2 IU/L
2 mg/kg, 9 h, dose level Low
  TERMINAL_BW: 193.9 g
  APTT: 20.9 s
  Bas: 0%
  Eos: 0.6%
  Fbg: 312.6 mg/dL
  Hb: 12.9 g/dL
  Ht: 38.9%
  Lym: 76.4%
  MCH: 21.2 pg
  MCHC: 33.1%
  MCV: 64.1 fL
  Mono: 1.6%
  Neu: 20.6%
  PT: 16.1 s
  Plat: 120.1 x10_4/uL
  RBC: 607.2 x10_4/ul
  Ret: 8.3%
  WBC: 83.5 x10_2/uL
  KIDNEY_L: 0.9 g
  KIDNEY_R: 0.9 g
  KIDNEY_TOTAL: 1.8 g
  LIVER: 8.3 g
  ALP: 1429.8 IU/L
  ALT: 36.4 IU/L
  AST: 69 IU/L
  BUN: 10.2 mg/dL
  CRE: 0.2 mg/dL
  Ca: 10.7 mg/dL
  Cl: 106.4 meq/L
  DBIL: 0 mg/dL
  GLC: 179.2 mg/dL
  IP: 10.1 mg/dL
  K: 4 meq/L
  LDH: 221 IU/L
  Na: 143.4 meq/L
  PL: 142.4 mg/dL
  RALB: 3.1 g/dL
  TBIL: 0.036 mg/dL
  TC: 81.2 mg/dL
  TP: 5.4 g/dL
  gamma-GTP: 1 IU/L
